From patent US6407129B1, “Azole compounds, their production and their use” (Takeda Chemical Industries, Ltd., priority 1997, dated 2002) come the findings set out here.

Common to all, as to format: in vivo
The subject of assay [1] is Candida albicans TA. The assay is described as follows: Protective effect against experimental Candida albicans TA infection in mice, intravenous administration (Experiment 1). Conditions: Crj:CDF1 female mice, compound in 5% glucose given intravenously immediately after infection, Reed and Muench from survival rates on day 7. As for the experimental part:
Method: Five-week-old Crj:CDF1 female mice were infected intravenously with minimum lethal dose of Candida albicans TA. The test compounds were dissolved in 5% glucose solution and were administered intravenously to the mice immediately after infection. Protective effects of the compounds were expressed as 50% effective dose (ED50) calculated using the method of Reed and Muench from survival rates on day 7 after infection.

Assay [2] deals with Candida albicans TA. The assay is described as follows: Protective effect against experimental Candida albicans TA infection in mice, oral administration (Experiment 2). Conditions: Crj:CDF1 female mice, i.v. infection, compound in 5% glucose given orally immediately after infection; Reed and Muench from survival rates on day 7. The protocol:
Method: Five-week-old Crj:CDF1 female mice were infected intravenously with minimum lethal dose of Candida albicans TA. The test compounds were dissolved in 5% glucose solution and were administered orally to the mice immediately after infection. Protective effects of the compounds were expressed as 50% effective dose (ED50) calculated using the method of Reed and Muench from survival rates on day 7 after infection.

Assay [3] relates to Candida albicans T.A. Description: Protective effect at a single dose of 1.04 μmol/kg against experimental Candida albicans TA infection in mice (Experiment 3). Conditions: n = 5 mice; for Mean survival day of the mice which died, i.v. / No. of survivors, i.v.: 1.04 μmol/kg i.v.; for Mean survival day of the mice which died, i.v. / Mean survival day of the mice which died, p.o.: mice which had died up to 7 days after infection; for No. of survivors, i.v. / No. of survivors, p.o.: survivors on day 7 after infection; for Mean survival day of the mice which died, p.o. / No. of survivors, p.o.: 1.04 μmol/kg p.o. As for the experimental part: Method: Five-week-old Crj:CDF1 female mice were infected intravenously with minimum lethal dose of Candida albicans T.A. The test compounds were dissolved in 5% glucose solution and were administered intravenously (i.v.) or orally (p.o.) to the mice at a dose of 1.04 μmol/kg immediately after infection. Protective effect of each compound were expressed as the number of survivors on day 7 after infection and the mean survival days of the mice which had died up to 7 days after infection.
The protective effect of the reference compound shown in figure (V) is included in Table 7. The reference compound was suspended in 0.5% sodium carboxymethyl cellulose and was administered orally to the mice at a dose of 1.04 μmol/kg immediately after infection.

As to “1-[(2R,3R)-2-(2,4-difluorophenyl)-2-hydroxy-3-[2-oxo-3-[4-(1H-1,2,3-triazol-1-yl)phenyl]-1-imidazolidinyl]butyl]-4-[(2,2-dimethylpropanoyloxy)methyl]-1H-1,2,4-triazolium chloride [Compound 1]”, in assay [1], the ED50 i.v. came to 2.3 µmol/kg. The same compound gave an ED50 p.o. in assay [2] of 2.9 µmol/kg.
Turning to “1-[(2R,3R)-2-(2,4-difluorophenyl)-2-hydroxy-3-[2-oxo-3-[4-(1H-tetrazol-1-yl)phenyl]-1-imidazolidinyl]butyl]-4-(isopropoxycarbonyloxy)methyl-1H-1,2,4-triazolium chloride [Compound 18]”, in assay [3], the “Mean survival day of the mice which died, i.v.” value (“Mean survival day … i.v.” below) was 5.5 days; the “No. of survivors, i.v.” value came to 3; the “Mean survival day of the mice which died, p.o.” value (“Mean survival day … p.o.” for short) came out at 4.5 days; the “No. of survivors, p.o.” value came to 3.
Consider `C[C@@H](N1CCN(c2ccc(-n3cnnn3)cc2)C1=O)[C@](O)(C[n+]1cn(COC(=O)C(C)(C)C)cn1)c1ccc(F)cc1F.[Cl-]` [Compound 2, 1-[(2R,3R)-2-(2,4-difluorophenyl)-2-hydroxy-3-[2-oxo-3-[4-(1H-tetrazol-1-yl)phenyl]-1-imidazolidinyl]butyl]-4-[(2,2-dimethylpropanoyloxy)methyl]-1,2,4-triazolium chloride], for which the ED50 i.v. in assay [1] turned out to be 1.5 µmol/kg. The compound also displayed an ED50 p.o. in assay [2] of 1.8 µmol/kg.
For `CC(=O)OC[n+]1cnn(C[C@](O)(c2ccc(F)cc2F)[C@@H](C)N2CCN(c3ccc(-n4cnnn4)cc3)C2=O)c1.[Br-]` [Compound 11, 4-acetoxymethyl-1-[(2R,3R)-2-(2,4-difluorophenyl)-2-hydroxy-3-[2-oxo-3-[4-(1H-tetrazol-1-yl)phenyl]-1-imidazolidinyl]butyl]-1H-1,2,4-triazolium bromide], in assay [3], the “Mean survival day … i.v.” value was 4.0 days; the “No. of survivors, i.v.” value is reported as 2; the “Mean survival day … p.o.” value worked out at 6.0 days; the “No. of survivors, p.o.” value turned out to be 3.
For `CC(=O)OC[n+]1cnn(C[C@](O)(c2ccc(F)cc2F)[C@@H](C)N2CCN(c3ccc(-n4cnnn4)cc3)C2=O)c1.[Cl-]` [Compound 12, 4-acetoxymethyl-1-[(2R,3R)-2-(2,4-difluorophenyl)-2-hydroxy-3-[2-oxo-3-[4-(1H-tetrazol-1-yl)phenyl]-1-imidazolidinyl]butyl]-1H-1,2,4-triazolium chloride], in that order: 4.5 days, 3, 5.0 days and 4.
For the compound `CCC(=O)OC[n+]1cnn(C[C@](O)(c2ccc(F)cc2F)[C@@H](C)N2CCN(c3ccc(-n4cnnn4)cc3)C2=O)c1.[Cl-]` [Compound 14, 1-[(2R,3R)-2-(2,4-difluorophenyl)-2-hydroxy-3-[2-oxo-3-[4-(1H-tetrazol-1-yl)phenyl]-1-imidazolidinyl]butyl]-4-propanoyloxymethyl-1H-1,2,4-triazolium chloride], in assay [3], the “Mean survival day … i.v.” value was found to be 4.5 days; the “No. of survivors, i.v.” value is on record as 1; the “Mean survival day … p.o.” value stood at 6.0 days; the “No. of survivors, p.o.” value is listed as 3.
`CCOC(=O)OC[n+]1cnn(C[C@](O)(c2ccc(F)cc2F)[C@@H](C)N2CCN(c3ccc(-n4cnnn4)cc3)C2=O)c1.[Cl-]` [Compound 16, 1-[(2R,3R)-2-(2,4-difluorophenyl)-2-hydroxy-3-[2-oxo-3-[4-(1H-tetrazol-1-yl)phenyl]-1-imidazolidinyl]butyl]-4-ethoxycarbonyloxymethyl-1H-1,2,4-triazolium chloride]: in assay [3], the “Mean survival day … i.v.” value is 6.0 days; the “No. of survivors, i.v.” value is reported as 4; the “No. of survivors, p.o.” value is on record as 5.
Turning to `CC(N1CCN(c2ccc(-n3cnnn3)cc2)C1=O)C(O)(Cn1cncn1)c1ccc(F)cc1F` (stereo not shown) [Reference compound (V), reference compound], in assay [3], the “Mean survival day … p.o.” value was determined as 4.3 days and the “No. of survivors, p.o.” value is given as 2.
